Measurements: paper PMC11091117, “A fluorescently-tagged tick kinin neuropeptide triggers peristalsis and labels tick midgut muscles” (Scientific Reports, 2024)
Entries after “also recorded” stand apart in the source; their conditions may differ.

Legend:
[1] = system: vector-only (V/O) CHO-K1 cells; experiment: Confocal visualization on live vector-only cells with fluorescently labeled kinin peptide; type: binding; settings: 10 µM labeled peptide, 1 min, HBSS, confocal Leica SP8
Excerpt: Three peptides were used in this study. These included: 1) the ligand for the endogenous tick kinin receptor from Rhipicephalus sanguineus, Rhisa-kinin 8 peptide of sequence GTGEDQAFSPWGamide (Rhisa-K-8; RK8; of identical sequence to Rhimi-K-8 in Rhipicephalus microplus)[48], 2) the same peptide but fluorescently labeled at the N-terminus with tetramethylrhodamine (TMR) a red fluorescent dye, designated TMR-Rhisa-K-8 (TMR-RK8), and 3) a labeled peptide synthesized with the scrambled sequence of the kinin ligand, designated TMR-Scrambled. The sequence of TMR-RK8 was TMR-C-GTGEDQAFSPWGamide). The TMR-Scrambled kinin (TMR-C-GTQWGPGFEADSamide) served as a negative control for tissue labeling. […]
The BMLK3 and V/O cells (5000–10,000 cells) were seeded separately in 200 µL selective media onto the two chambers of the cover glass (Lab-Tek Chambered Coverglass, 4.2 cm^2 area, #1.0 German borosilicate glass, sterile, Cat # 155,380, Thermo Fisher Scientific Inc., Walthams, MA) and grown in the incubator overnight at 37 °C and 5% CO2. The next day, cells would be ready for fluorescent labeling: the selective media was replaced with 200 µL HBSS to rinse the cells. […] Images were analyzed and computer-colored using Fiji/ImageJ (National Institutes of Health, Bethesda, MD). […]

[2] = system: tick kinin receptor in midgut muscles; experiment: Fluorescent labeling of live midgut ex vivo, confocal microscopy; type: binding, Rhipicephalus sanguineus; settings: 10 µM labeled peptide, 1 min
Excerpt: Three peptides were used in this study. These included: 1) the ligand for the endogenous tick kinin receptor from Rhipicephalus sanguineus, Rhisa-kinin 8 peptide of sequence GTGEDQAFSPWGamide (Rhisa-K-8; RK8; of identical sequence to Rhimi-K-8 in Rhipicephalus microplus)[48], 2) the same peptide but fluorescently labeled at the N-terminus with tetramethylrhodamine (TMR) a red fluorescent dye, designated TMR-Rhisa-K-8 (TMR-RK8), and 3) a labeled peptide synthesized with the scrambled sequence of the kinin ligand, designated TMR-Scrambled. The sequence of TMR-RK8 was TMR-C-GTGEDQAFSPWGamide). The TMR-Scrambled kinin (TMR-C-GTQWGPGFEADSamide) served as a negative control for tissue labeling. All peptides were custom-synthesized and purchased from GenScript (Piscataway, NJ, USA) with a purity of ≥ 95% and the cysteine in bold in both sequences was added to attach the label. Experiments were replicated with independently synthesized batches (4 mg each) of labeled and unlabeled peptides, for reproducibility. Unlabeled RK8 was used as a competitive ligand to verify target-specific binding of the labeled TMR-RK8 (see Ligand Competition Assay). For cell assays, the peptide stock solutions (100 µM) were made in 1% dimethyl sulfoxide (DMSO) in Hank’s balanced salt solution (HBSS, Thermo Fisher, Waltham, USA). For fluorescent cell labeling, peptide working solutions (10 µM) were prepared in HBSS from stock solutions. For assays on the midgut, peptides were solubilized and diluted in a tick physiological saline consisting of 140 mM NaCl, 5 mM KCl, 1 mM MgCl2, 5 mM CaCl2, 4 mM NaHCO3, and 5 mM HEPES, pH 7.2[49].
(§1) Individual female ticks were immobilized on a Petri dish filled with wax by submerging their legs in melted wax heated with a soldering pencil (Electronic Control Soldering Station EC 1000, Weller, Apex, North Carolina, USA). Females were dissected under physiological saline following the protocol described by Tidwell et al.[51]. The tick was cut along the edge of the scutum/alloscutum using a stainless steel #12 scalpel blade (Integra Miltex, York, PA, USA), after which the scutum was removed with a pair of fine forceps. To expose the midgut for removal, the tracheae, Malpighian tubules, ovaries, rectal sac, and synganglion were removed with fine forceps in that order. The midgut was then carefully removed and placed into 200 µL of fresh tick saline (See Reagents and Peptides) on a single gasketed incubation chamber (500 µL, Size 22 × 40 mm, Electron Microscopy Sciences, Hatfield, PA). The midguts were then rinsed three times with the physiological tick saline for subsequent fluorescent labeling or activity experiments.
To determine the location of the tick kinin receptor in the midgut of ticks, a commercially synthesized Rhisa-kinin peptide 8[52] conjugated with a stable, red fluorophore (TMR-RK8) or a similarly labeled peptide of scrambled sequence (TMR-Scrambled) were applied to freshly dissected midguts ex vivo. For this, midguts of unfed adult females were incubated in ice-cold saline for 10 min. The saline was removed before incubation in 200 µL of 4’,6-diamidino-2-phenylindole dihydrochloride (DAPI, Sigma, 1 µg/mL in saline) for 1 min and rinsed with saline (200 µL) once. After saline removal, the midgut was incubated for 1 min with 200 µL of 10 µM of either TMR-Scrambled kinin or TMR-RK8, then the labeled peptide solution was removed by pipette and the midgut was rinsed twice with 200 µL saline. […]

[3] = system: tick midgut; experiment: Tick midgut contraction assay with EthoVision video analysis; set-up: species or system Rhipicephalus sanguineus
Excerpt: as §1
Midguts were dissected from immobilized female ticks under tick saline, as described under the Midgut Dissection. Ten different midguts were used for each of the two treatments, and ticks were of the same age and batch and had been maintained under the same conditions. Dissected midguts were placed individually into 200 µL of tick saline for 10 min at 28 °C on a gasketed glass coverslip (500 µL, Size 22 × 40 mm) serving as incubation chamber. […] After the final wash and removal of saline, 200 µL of saline were added, and a microscopy coverslip (24 × 60 mm, VWR, Radnor, PA) was placed over the gasketed portion of the incubation chamber, which height (0.5 mm) fits to prevent the midgut from floating, but still allows midgut peristalsis. The midguts were observed and filmed under a dissecting microscope (Olympus SZ61, Japan) equipped with an Infinity 5 camera (Teledyne Lumenera, Ottawa, ON, Canada). All videos were recorded for 1 min with the INFINITY ANALYZE 7 software (Teledyne Lumenera) at 30 frames/second with a 2464 × 2056 resolution. The field of view in all videos recorded represents 4 × 3.5 mm to capture the entire tick midguts under saline. All video files in Windows Media Video (.wmv) format obtained from the Infinity Analyze 7 software were converted to the MP4 format using CloudConvert (cloudconvert.com, Lunaweb, Munich, Germany) for analyses with the EthoVision XT 17 software (Noldus Information Technology, Wageningen, The Netherlands).
We used the EthoVision 17 XT software to quantify the “activity” (pixel change) of the midguts from the videos recorded. This software defines activity as the percentage of pixels that have changed in the entire defined arena between the current image and previous image. The videos are recorded in 2464 × 2056 resolution and the arena is set to be the entire video screen. Video files were uploaded into the program and analyzed starting from time zero to the end of the 60 s video. Detection settings for activity included the activity threshold which was set to 5 to achieve zero detection when the midgut was immobile. Although the video captured 30 frames (images) per s, for the video analysis we chose a “sample rate” of 7 samples /s, with sample rate being the number of images from the video the EthoVision program analyzes per second. To calculate activity, each pixel of the video image was compared from one image to the next, and the proportion of pixel changes was calculated by dividing the number of pixels changed from one image to the next by the total number of pixels in the image. Care was given for the midgut to occupy most of the arena, as the activity analyses will reflect the midgut movement as a proportion of the total arena. Midgut activity is observed as pixel changes, which are represented by the red-colored pixels in the S4 video. The mean pixel change per midgut was then determined by averaging the pixel changes from all samples within the recording period. […]

TMR-C-GTQWGPGFEADSamide [TMR-Scrambled]
labeling of vector-only cells (in words) [1]: not labeled by either peptide | non-specific labeling below midgut surface (in words) ([2]; midguts ex vivo, Z-slices under the surface): non-specific aggregation in lipid vesicles beneath the midgut surface; also recorded: non-specific labeling observed in lipid vesicles inside the midgut | labeling of midgut surface muscles (in words) ([2]; tick saline pH 7.2, midguts of unfed females ex vivo, DAPI and Alexa 488-phalloidin, confocal 20X/40X): did not significantly bind to the surface of the tick midgut; also recorded: did not show specific binding to the midgut of ticks; also recorded: specific muscle surface staining was not observed; also recorded: No signal; also recorded: grid-like fluorescent pattern was not observed | midgut contractions, S5 Video (in words) ([3]; 1 µM TMR-Scrambled, after 10 min of exposure, 4X speed): did not induce contractions | midgut peristalsis/contractions (in words) ([3]; 10 µM, 1 min, 28 °C, midguts of unfed females ex vivo, video recorded 1 min): did not elicit peristalsis; also recorded: low to imperceptible activity; also recorded: did not display significant activity | mean activity (mean pixel change, percentage of pixels changed in arena) ([3]; 10 µM, 1 min, rinsed twice, 28 °C, tick saline, 60 s video, 7 samples/s, EthoVision XT 17, activity threshold 5, N = 10 midguts): less than 0.1%
